Assay results: US20200317716A1, “PREPARATION OF BILE ACIDS AND INTERMEDIATES THEREOF” (ALLERGAN SALES, LLC, priority 2008, published 2020)

How the values were obtained:
Primary human adipocytes = assay: MTS cell viability assay on primary human adipocytes; type: cell-based; details: 0.005%-0.1% bile acid in serum-free media, incubated for 1 hour at 37° C., MTS read at 490 nm, FIG. 1
Method: Primary human adipocytes were incubated with varying concentrations of synthetic sodium deoxycholate synthesized using 9-HAD as starting material or bovine-derived sodium deoxycholate obtained from Sigma as described below.
96 well plates (US Scientific cat # cellstar no. 655180) Serum-free RPMI medium (Mediatech cat #17-105-CV) Sodium deoxycholate (DC) (Sigma cat # D6750) Synthetic Sodium glycodeoxycholate (Kythera)
Adipocytes arrived differentiated and at a density of 13,000 cells per well in a 96 well plate. Two plates were received and each treated with the same samples. Cells were incubated for 24 hours at 37° C. with 5% CO2. A 1% stock solution of each bile acid (synthetic and non-synthetic DCA) were made by dissolving 20 mg into 2 mL media (serum-free). Using the 1% stock solution, the following 11 solutions were prepared by dilution: 0.005%, 0.01%, 0.015%, 0.02%, 0.025%, 0.03%, 0.035%, 0.04%, 0.05%, 0.06%, and 0.1%, as well as 0% (media only).
Cells were washed 2× with 150 μL of room temperature 1×PBS (phosphate buffered saline). Media and then PBS were removed from the wells in a 96 well plate by turning the plate upside down and decanting the liquid into a container. After the last PBS wash, 80 μL of sample was added per well. […]
Cell viability was assessed using a colorimetric assay (MTS) kit from Promega.

Molecule	melting point [°C]	cell survival (Primary human adipocytes)
C/C=C1/CC[C@H]2[C@@H]3CC[C@@H]4C[C@H](OC(C)=O)CC[C@]4(C)C3=CC[C@]12C	93.9 to 97.8	
COC(=O)CC[C@@H](C)[C@H]1CC[C@H]2[C@@H]3CC[C@@H]4C[C@H](OC(C)=O)CC[C@]4(C)[C@H]3C[C@H](O)[C@]12C	104.2 to 107.7	
C/C=C1/CC[C@H]2[C@@H]3CC[C@@H]4C[C@H](O)CC[C@]4(C)C3=CC[C@]12C	146 to 147.3	
COC(=O)CC[C@@H](C)[C@H]1CC[C@H]2[C@@H]3CC[C@@H]4C[C@H](OC(C)=O)CC[C@]4(C)C3=CC[C@]12C	122.1 to 123.9	
C[C@]12CCC(=O)C[C@H]1CC[C@H]1[C@@H]3CCC(=O)[C@@]3(C)CC[C@@]12O	213 to 216	
COC(=O)CC[C@@H](C)[C@H]1CC[C@H]2[C@@H]3CC[C@@H]4C[C@H](OC(C)=O)CC[C@]4(C)[C@H]3CC(=O)[C@]12C	142.2 to 144.4	
sodium deoxycholate [syn-NaDC]		dose-dependent decrease in cell survival
COC(=O)/C=C/[C@@H](C)C1=CC[C@H]2[C@@H]3CC[C@@H]4C[C@H](OC(C)=O)CC[C@]4(C)C3=CC[C@]12C	114 to 116	
